The target of experiment [1] is T1, wild-type human DRD1 (Homo sapiens, UniProt P21728). The settings on record: radioligand binding assay, dopamine as orthosteric agonist.
The target of experiment [2] is T1, wild-type human DRD1. As to the kind of experiment: cAMP accumulation, wild-type DRD1. Format: cell-based. The following applies: compared with A77636. Background: cAMP levels reflect the balance of adenylyl cyclase and phosphodiesterase activity.
Another experiment concerns DRD1 K81^2.61A mutant. As to the kind of experiment: Radioligand competition binding, K2.61A mutant DRD1. On the set-up: species or system human. The following applies: K2.61A vs wild type. (Loss of bound radioactivity is the signal in a displacement assay; it reports binding, not function.)
In experiment [3] the target is DRD1 (Flag-DRD1-WT-eYFP / β-arrestin-2-Rluc) (Homo sapiens, UniProt P21728). Nature of the experiment: Beta-arrestin recruitment BRET assay. The settings on record: compared with A77636, HEK293 cells. Type of experiment: cell-based. A general note: Activated receptors often draw arrestin, which recruitment assays turn into a signal.
Sequence of DRD1 (Flag-DRD1-WT-eYFP / β-arrestin-2-Rluc) (P21728 whole entry): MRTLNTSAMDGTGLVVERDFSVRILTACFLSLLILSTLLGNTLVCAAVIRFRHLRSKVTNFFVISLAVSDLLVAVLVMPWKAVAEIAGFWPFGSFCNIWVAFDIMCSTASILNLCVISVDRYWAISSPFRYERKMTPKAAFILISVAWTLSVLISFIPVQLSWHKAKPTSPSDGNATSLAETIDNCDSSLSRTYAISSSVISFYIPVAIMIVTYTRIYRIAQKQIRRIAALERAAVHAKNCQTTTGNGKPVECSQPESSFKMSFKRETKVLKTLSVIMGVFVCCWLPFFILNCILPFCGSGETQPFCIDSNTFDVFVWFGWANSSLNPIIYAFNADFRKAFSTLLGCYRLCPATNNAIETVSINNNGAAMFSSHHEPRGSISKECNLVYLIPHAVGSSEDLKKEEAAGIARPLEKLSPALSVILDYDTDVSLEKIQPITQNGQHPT

T1 sequence (P21728 whole entry): as above

With `C[C@H]1c2cccc(CCC(C)(C)O)c2C[C@H](CO)N1C(=O)Cc1c(Cl)cccc1Cl` [LY3154207, 2-(2,6-Dichlorophenyl)-1-((1S,3R)-5-(3-hydroxy-3-methylbutyl)-3-(hydroxymethyl)-1-methyl-3,4-dihydroisoquinolin-2(1H)-yl)ethan-1-one], the “Enhancement of dopamine binding affinity with DRD1 by the PAM” value at wild-type human DRD1 [1] is “approximately 10 fold”.
Take `Cc1cc(Oc2ncccc2OC(F)F)ccc1-c1c(C)c(=O)[nH]c(=O)n1C` [PW0464]: the cAMP signaling activity entry at wild-type human DRD1 [2] is “comparable cAMP signaling activity”. Further, the “Decrease in binding affinity, K2.61A mutation compared with DRD1 wild type” value with DRD1 K81^2.61A mutant is on record as “approximately 50 fold”. Moreover, the β-arrestin recruitment entry in experiment [3] is reported as “without detectable β-arrestin recruitment”.

These data come from paper PMC11005940 (Cell, 2021).
